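Step 1: Grow cells in 96-well plates. Step 2: Expose to compound for 48 hours at 5 concentrations. Step 3: Interpolate endpoints linearly; if unreached, use highest concentration. GI50 is the concentration that inhibits growth by half.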 Activity calls are given as the source filed them. No stated cut-off is given here; in the data, active = GI50 up to about 1.1 µM and inactive = higher.
Columns and labels:
Assay in all cases: NCI tumour cell line growth inhibition, 48 h
[1] = tested on: LOX IMVI
[2] = tested on: NCI-H226
[3] = tested on: HCC 2998
[4] = tested on: Malme-3M
[5] = tested on: NCI-H460
[6] = tested on: SNB-19
[7] = tested on: TK-10
[8] = tested on: UACC-62
[9] = tested on: SK-MEL-28
[10] = tested on: HL-60
[11] = tested on: SK-MEL-5
[12] = tested on: HCT-15
[13] = tested on: HT-29
[14] = tested on: KM12
[15] = tested on: SK-OV-3
[16] = tested on: MDA-MB-231
[17] = tested on: COLO 205
[18] = tested on: MCF7
[19] = tested on: SR
[20] = tested on: A498
[21] = tested on: RXF 393
[22] = tested on: SK-MEL-2
[23] = tested on: T47D
[24] = tested on: SF-295
[25] = tested on: CAKI-1
[26] = tested on: MDA-MB-435
[27] = tested on: SN12C
[28] = tested on: OVCAR-3
[29] = tested on: MDA-N
[30] = tested on: M14
[31] = tested on: PC-3
[32] = tested on: U-251
[33] = tested on: HCT-116
[34] = tested on: SW-620
[35] = tested on: OVCAR-4
[36] = tested on: 786-0
[37] = tested on: HOP-62
[38] = tested on: DU-145
[39] = tested on: K562
[40] = tested on: NCI/ADR-RES
[41] = tested on: HOP-92
[42] = tested on: A549
[43] = tested on: MOLT-4
[44] = tested on: NCI-H522
[45] = tested on: SF-268
[46] = tested on: RPMI-8226
[47] = tested on: ACHN
[48] = tested on: OVCAR-8
[49] = tested on: BT-549
[50] = tested on: NCI-H23
[51] = tested on: UACC-257
[52] = tested on: CCRF-CEM
[53] = tested on: SF-539
[54] = tested on: OVCAR-5
[55] = tested on: EKVX
[56] = tested on: IGROV-1
[57] = tested on: UO-31
[58] = tested on: Hs-578T
[59] = tested on: SNB-75

Question: Which GI50 [1] does the source give for `O=c1oc2nc(-c3ccccc3)cc(C(F)(F)F)c2n1Cc1ccccc1` here?
Answer: 9.71 µM (inactive)

Question: What about the GI50 [2] of the same compound?
Answer: > 100 µM (inactive)

Question: What about the GI50 [3] of the same compound?
Answer: > 25.8 µM (inactive)

Question: And the GI50 [4]?
Answer: 1.89 µM (inactive)

Question: And the GI50 [5]?
Answer: > 100 µM (inactive)

Question: And the GI50 [6]?
Answer: 6.52 µM (inactive)

Question: What about the GI50 [7] of the same compound?
Answer: 46.6 µM (inactive)

Question: And the GI50 [8]?
Answer: 4.24 µM (inactive)

Question: And the GI50 [9]?
Answer: 50.1 µM (inactive)

Question: What about the GI50 [10] of the same compound?
Answer: 2.15 µM (inactive)

Question: What about the GI50 [11] of the same compound?
Answer: 5.42 µM (inactive)

Question: And the GI50 [12]?
Answer: 1.87 µM

Question: What about the GI50 [13] of the same compound?
Answer: 3.8 µM (inactive)

Question: And the GI50 [14]?
Answer: 2.84 µM (inactive)

Question: And the GI50 [15]?
Answer: 7.8 µM (inactive)

Question: And the GI50 [16]?
Answer: > 24.4 µM (inactive)

Question: What about the GI50 [17] of the same compound?
Answer: 7.82 µM (inactive)

Question: And the GI50 [18]?
Answer: 0.995 µM (active)

Question: What about the GI50 [19] of the same compound?
Answer: 0.454 µM (active)

Question: What about the GI50 [20] of the same compound?
Answer: 2.07 µM (inactive)

Question: And the GI50 [21]?
Answer: 2.71 µM (inactive)

Question: What about the GI50 [22] of the same compound?
Answer: 6.43 µM (inactive)

Question: And the GI50 [23]?
Answer: 3.24 µM (inactive)

Question: What about the GI50 [24] of the same compound?
Answer: 5.12 µM (inactive)

Question: And the GI50 [25]?
Answer: 7.8 µM (inactive)

Question: What about the GI50 [26] of the same compound?
Answer: 0.659 µM (active)

Question: And the GI50 [27]?
Answer: 5.9 µM (inactive)

Question: And the GI50 [28]?
Answer: 4.06 µM (inactive)

Question: What about the GI50 [29] of the same compound?
Answer: 0.689 µM (active)

Question: And the GI50 [30]?
Answer: 4.33 µM (inactive)

Question: And the GI50 [31]?
Answer: 3.46 µM (inactive)

Question: And the GI50 [32]?
Answer: 4.8 µM (inactive)

Question: What about the GI50 [33] of the same compound?
Answer: 3.13 µM (inactive)

Question: And the GI50 [34]?
Answer: 6.5 µM (inactive)

Question: What about the GI50 [35] of the same compound?
Answer: 11.6 µM (inactive)

Question: What about the GI50 [36] of the same compound?
Answer: 5.43 µM (inactive)

Question: And the GI50 [37]?
Answer: 12.2 µM (inactive)

Question: And the GI50 [38]?
Answer: 11.3 µM (inactive)

Question: And the GI50 [39]?
Answer: 1.53 µM (inactive)

Question: And the GI50 [40]?
Answer: 3.42 µM (inactive)

Question: And the GI50 [41]?
Answer: 85.5 µM (inactive)

Question: And the GI50 [42]?
Answer: 8.69 µM (inactive)

Question: And the GI50 [43]?
Answer: 4.21 µM (inactive)

Question: And the GI50 [44]?
Answer: 4.33 µM (inactive)

Question: What about the GI50 [45] of the same compound?
Answer: > 25 µM (inactive)

Question: And the GI50 [46]?
Answer: 4.41 µM (inactive)

Question: What about the GI50 [47] of the same compound?
Answer: 11.7 µM (inactive)

Question: What about the GI50 [48] of the same compound?
Answer: 42.4 µM (inactive)

Question: What about the GI50 [49] of the same compound?
Answer: 19.7 µM (inactive)

Question: What about the GI50 [50] of the same compound?
Answer: 6.14 µM (inactive)

Question: What about the GI50 [51] of the same compound?
Answer: > 37.8 µM (inactive)

Question: What about the GI50 [52] of the same compound?
Answer: 7.21 µM (inactive)

Question: What about the GI50 [53] of the same compound?
Answer: 7.5 µM (inactive)

Question: What about the GI50 [54] of the same compound?
Answer: > 100 µM (inactive)

Question: What about the GI50 [55] of the same compound?
Answer: 7.03 µM (inactive)

Question: And the GI50 [56]?
Answer: 13.4 µM (inactive)

Question: With `c1ccc2c(c1)OC(N1CCCC1)c1cnc(N3CCCC3)nc1-2` (stereo not drawn) as the compound, how does the GI50 [1] read?
Answer: 45.9 µM (inactive)

Question: What about the GI50 [2] of the same compound?
Answer: 54.2 µM (inactive)

Question: What about the GI50 [4] of the same compound?
Answer: 40.7 µM (inactive)

Question: And the GI50 [5]?
Answer: 36.7 µM (inactive)

Question: And the GI50 [6]?
Answer: 92.5 µM (inactive)

Question: And the GI50 [7]?
Answer: 49.2 µM (inactive)

Question: And the GI50 [8]?
Answer: 50.7 µM (inactive)

Question: And the GI50 [9]?
Answer: 79.6 µM (inactive)

Question: And the GI50 [57]?
Answer: 24.3 µM (inactive)

Question: And the GI50 [10]?
Answer: 27.4 µM (inactive)

Question: And the GI50 [12]?
Answer: 29.7 µM

Question: And the GI50 [13]?
Answer: 36.2 µM (inactive)

Question: What about the GI50 [14] of the same compound?
Answer: 41.3 µM (inactive)

Question: And the GI50 [15]?
Answer: 44.1 µM (inactive)

Question: And the GI50 [16]?
Answer: 41.8 µM (inactive)

Question: And the GI50 [17]?
Answer: 31.3 µM (inactive)

Question: What about the GI50 [18] of the same compound?
Answer: 18.6 µM (inactive)

Question: And the GI50 [19]?
Answer: 29.7 µM (inactive)

Question: And the GI50 [20]?
Answer: 26.5 µM (inactive)

Question: What about the GI50 [21] of the same compound?
Answer: 20.3 µM (inactive)

Question: What about the GI50 [23] of the same compound?
Answer: 22.5 µM (inactive)

Question: And the GI50 [24]?
Answer: 30.4 µM (inactive)

Question: And the GI50 [25]?
Answer: 20.9 µM (inactive)

Question: And the GI50 [26]?
Answer: 49.8 µM (inactive)

Question: And the GI50 [27]?
Answer: 45.2 µM (inactive)

Question: And the GI50 [28]?
Answer: 22.9 µM (inactive)

Question: What about the GI50 [30] of the same compound?
Answer: 50.9 µM (inactive)

Question: What about the GI50 [31] of the same compound?
Answer: 28.7 µM (inactive)

Question: And the GI50 [58]?
Answer: 30.5 µM (inactive)

Question: What about the GI50 [32] of the same compound?
Answer: 45.9 µM (inactive)

Question: And the GI50 [33]?
Answer: 39.2 µM (inactive)

Question: What about the GI50 [34] of the same compound?
Answer: 36.3 µM (inactive)

Question: What about the GI50 [35] of the same compound?
Answer: 36.2 µM (inactive)

Question: What about the GI50 [36] of the same compound?
Answer: 40.3 µM (inactive)

Question: And the GI50 [37]?
Answer: 68.2 µM (inactive)

Question: And the GI50 [38]?
Answer: 49.9 µM (inactive)

Question: What about the GI50 [39] of the same compound?
Answer: 34.3 µM (inactive)

Question: And the GI50 [41]?
Answer: 13.6 µM (inactive)

Question: And the GI50 [42]?
Answer: 43.4 µM (inactive)

Question: What about the GI50 [59] of the same compound?
Answer: 15.2 µM (inactive)

Question: What about the GI50 [43] of the same compound?
Answer: 24 µM (inactive)

Question: What about the GI50 [45] of the same compound?
Answer: 29.4 µM (inactive)

Question: What about the GI50 [46] of the same compound?
Answer: 20.7 µM (inactive)

Question: What about the GI50 [47] of the same compound?
Answer: 40.6 µM (inactive)

Question: And the GI50 [48]?
Answer: 51.3 µM (inactive)

Question: And the GI50 [49]?
Answer: 21.2 µM (inactive)

Question: And the GI50 [50]?
Answer: 37 µM (inactive)

Question: And the GI50 [51]?
Answer: 20.6 µM (inactive)

Question: What about the GI50 [52] of the same compound?
Answer: 23.8 µM (inactive)

Question: What about the GI50 [53] of the same compound?
Answer: 68.1 µM (inactive)

Question: And the GI50 [54]?
Answer: 76 µM (inactive)

Question: What about the GI50 [55] of the same compound?
Answer: 19.4 µM (inactive)

Source: ChEMBL document CHEMBL1201862, “PubChem BioAssay data set” (2004)
